Test results reported in patent US20200121801A1, “DRUG DELIVERY CONJUGATES CONTAINING UNNATURAL AMINO ACIDS AND METHODS FOR USING” (priority 2012, published 2020).
“Also recorded” adds a separate entry of the source. Like-named read-outs stand apart in the source and are kept apart here.

Assays:
KB cells (FR+) = format: cell-based, Human; conditions: for In vitro specificity (fold) (d): IC50 competed group vs non-competed group
Experimental: METHOD. Inhibition of Cellular DNA Synthesis. The compounds described herein are evaluated using an in vitro cytotoxicity assay that predicts the ability of the drug to inhibit the growth of folate receptor-positive cells, such as KB cells, RAW264.7 macrophages, and the like. It is to be understood that the choice of cell type can made on the basis of the susceptibility of those selected cells to the drug that forms the conjugate. The test compounds are comprised of folate linked to a respective chemotherapeutic drug, as prepared according to the processes described herein. The test cells are exposed to varying concentrations of folate-drug conjugate, and also in the absence or presence of at least a 100-fold excess of folic acid to assess activity as being specific to folate receptor mediation.
EXAMPLE. Conjugates of cytotoxic drugs described herein are active against KB cells. The activity is mediated by the folate receptor as indicated by competition experiments using co-administered folic acid. KB cells are exposed for up to 7 h at 37° C. to the indicated concentrations of folate-drug conjugate in the absence or presence of at least a 100-fold excess of folic acid. The cells are then rinsed once with fresh culture medium and incubated in fresh culture medium for 72 hours at 37° C. Cell viability was assessed using a ^3H-thymidine incorporation assay.
METHOD. In vitro activity against various cancer cell lines. IC50 values are generated for various cell lines. Cells are heavily seeded in 24-well Falcon plates and allowed to form nearly confluent monolayers overnight. Thirty minutes prior to the addition of the test compound, spent medium is aspirated from all wells and replaced with fresh folate-deficient RPMI medium (FFRPMI). A subset of wells are designated to receive media containing 100 μM folic acid. The cells in the designated wells are used to determine the targeting specificity. Without being bound by theory it is believed herein that the cytotoxic activity produced by test compounds in the presence of excess folic acid, i.e. where there is competition for FR binding, corresponds to the portion of the total activity that is unrelated to FR-specific delivery. Following one rinse with 1 mL of fresh FFRPMI containing 10% heat-inactivated fetal calf serum, each well receives 1 mL of medium containing increasing concentrations of test compound (4 wells per sample) in the presence or absence of 100 μM free folic acid as indicated. Treated cells are pulsed for 2 h at 37° C., rinsed 4 times with 0.5 mL of media, and then chased in 1 mL of fresh medium up to 70 h. Spent medium is aspirated from all wells and replaced with fresh medium containing 5 μCi/mL ^3H-thymidine. Following a further 2 h 37° C. incubation, cells are washed 3 times with 0.5 mL of PBS and then treated with 0.5 mL of ice-cold 5% trichloroacetic acid per well. After 15 min, the trichloroacetic acid is aspirated and the cell material solubilized by the addition of 0.5 mL of 0.25 N sodium hydroxide for 15 min. A 450 μL aliquot of each solubilized sample is transferred to a scintillation vial containing 3 mL of Ecolume scintillation cocktail and then counted in a liquid scintillation counter. Final results are expressed as the percentage of ^3H-thymidine incorporation relative to untreated controls.

[1] = molecular target: T1, folate receptors (FRs) on KB cells (Homo sapiens, UniProt P15328); assay: Relative affinity assay (3H-folic acid competition) on KB cells; format: binding; conditions: for Relative Affinity (a) compared to folic acid: folic acid = 1, in 10% serum/FDRPMI
T1 construct: FR-positive KB cells are heavily seeded into 24-well cell culture plates; endogenous in cells; host or cells: KB cells
Experimental: METHOD. Relative Affinity Assay. The affinity for folate receptors (FRs) relative to folate is determined according to a previously described method (Westerhof, G. R., J. H. Schornagel, et al. (1995) Mol. Pharm. 48: 459-471) with slight modification. Briefly, FR-positive KB cells are heavily seeded into 24-well cell culture plates and allowed to adhere to the plastic for 18 h. Spent incubation media is replaced in designated wells with folate-free RPMI (FFRPMI) supplemented with 100 nM ^3H-folic acid in the absence and presence of increasing concentrations of test article or folic acid. Cells are incubated for 60 min at 37° C. and then rinsed 3 times with PBS, pH 7.4. Five hundred microliters of 1% SDS in PBS, pH 7.4, is added per well. Cell lysates are then collected and added to individual vials containing 5 mL of scintillation cocktail, and then counted for radioactivity. Negative control tubes contain only the ^3H-folic acid in FFRPMI (no competitor). Positive control tubes contain a final concentration of 1 mM folic acid, and CPMs measured in these samples (representing non-specific binding of label) are subtracted from all samples.

KB tumors = assay: Inhibition of tumor growth, s.c. KB tumors in nu/nu mice; format: in vivo; set-up: key to In vivo activity (e): CR = complete response, where tumor volume, as defined herein, during the observation period was zero for all test animals in the group; conditions: for In vivo activity (e): subcutaneous KB tumor in nu/nu mice
Experimental: METHOD. Inhibition of Tumor Growth in Mice. […] For tumor cell inoculation, 1×10^6 M109 cells (a syngeneic lung carcinoma) in Balb/c strain, or 1×10^6 KB cells in nu/nu strain, in 100 μL are injected in the subcutis of the dorsal medial area (right axilla).
METHOD. Toxicity as Measured by Weight Loss. The percentage weight change of the test animals is determined on selected days post-tumor inoculation (PTI), and during dosing. The results are graphed.

[2] = Plasma stability / free drug release after s.c. dose (EC1496 vs EC0746); format: in vivo, rats
Experimental: METHOD. Human serum stability. Compounds described herein are tested in human serum for stability using conventional protocols and methods. Briefly, test compound is administered to the test animal, such as by subcutaneous injection. The plasma concentration of the conjugate, and optionally one or more metabolites, is monitored over time. The results are graphed to determine Cmax, Tmax, half-life, and AUC for the test compound and metabolites.
EXAMPLE. […] EC1495 and EC0746 (comparator compound) are each administered at 500 nmol/kg by subcutaneous injection. The plasma concentration of the conjugate and the metabolites (aminopterin and aminopterin hydrazide) are monitored over time. […] As also shown in the following table, free drug is released as the parent aminopterin and the hydrazide derivative (EC0470).

[3] = Plasma clearance after s.c. administration; format: in vivo, Lewis rats; conditions: EC1669 500 nmol/kg s.c.
Experimental: METHOD. Plasma clearance. In vivo studies include a minimum of 3 test animals, such as rats, per time point. Illustratively, female Lewis rats with jugular vein catheters (Harlan, regular rodent diet) are given a single subcutaneous injection of test compound, such as EC1669 at 500 nmol/kg. Whole blood samples (300 μL) are collected at the following time points: 1 min, 10 min, 30 min, 1 h, 2 h, 3 h, 4 h, 8 h, and 12 h after injection. The blood samples are placed into anti-coagulant tubes containing 1.7 mg/mL of K3-EDTA and 0.35 mg/mL of N-maleoyl-beta-alanine (0.35 mg/mL) in a 0.15% acetic acid solution. Plasma samples are obtained by centrifugation for 3 min at ˜2,000 g and stored at −80° C. The amounts of test compound in the plasma and any metabolites, such as EC1669 and its two active metabolites aminopterin (AMT) and AMT hydrazide (EC0470), respectively, are quantified by LC-MS/MS.

[4] = IC50 for test compound when competed with excess folic acid, read-out: 50% competition (nM) (c)
[5] = as determined by thymidine incorporation, read-out: In vitro IC50 (nM) (b)

T1 sequence (P15328 25-234): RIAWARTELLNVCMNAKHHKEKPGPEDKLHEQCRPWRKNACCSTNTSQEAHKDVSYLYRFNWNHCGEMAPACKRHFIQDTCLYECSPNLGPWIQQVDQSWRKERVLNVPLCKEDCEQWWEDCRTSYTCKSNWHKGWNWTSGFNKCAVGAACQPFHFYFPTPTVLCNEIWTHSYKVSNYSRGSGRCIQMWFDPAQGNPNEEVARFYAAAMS

| Molecule | In vitro specificity (fold) (d) (KB cells (FR+)) | IC50 (KB cells (FR+); [4]) | IC50 (KB cells (FR+); [5]) | Relative Affinity (a) compared to folic acid [1] | In vivo activity (e) (KB tumors) | other results |
| --- | --- | --- | --- | --- | --- | --- |
| CCCC(=O)OCN(C(=O)[C@@H](NC(=O)[C@H]1CCCCN1C)C(C)CC)C(C[C@@H](OC(C)=O)c1nc(C(=O)N[C@@H](Cc2ccc(O)cc2)C[C@H](C)C(=O)NNC(=O)OCCSSC[C@@H](NC(=O)[C@@H](CC(=O)O)NC(=O)[C@H](CC(=O)O)NC(=O)[C@H](CCCNC(=N)N)NC(=O)[C@H](CC(=O)O)NC(=O)CC[C@H](NC(=O)c2ccc(NCc3cnc4nc(N)[nH]c(=O)c4n3)cc2)C(=O)O)C(=O)O)cs1)C(C)C (some centres unmarked) [EC1549] | 78 fold | 350 nM | 4.5 nM | 0.90 | CR |  |
| CN(Cc1cnc2nc(N)nc(N)c2n1)c1ccc(C(=O)N[C@@H](CCC(=O)O)C(=O)O)cc1 [methotrexate, reference compound] |  |  |  |  |  | binding to the cell surface FRs ([1]; in comparison to EC1669): poor binding |
| N=c1[nH]c(N)nc2ncc(CNc3ccc(C(=O)N[C@@H](CCC(=O)NNC(=O)OCCSSC[C@H](NC(=O)[C@H](CCC(=O)NC[C@H](O)[C@@H](O)[C@H](O)[C@H](O)CO)NC(=O)[C@H](CCC(=O)O)NC(=O)[C@H](CCC(=O)NC[C@H](O)[C@@H](O)[C@H](O)[C@H](O)CO)NC(=O)[C@H](CCC(=O)O)NC(=O)[C@H](CCC(=O)NC[C@H](O)[C@@H](O)[C@H](O)[C@H](O)CO)NC(=O)CC[C@H](NC(=O)c4ccc(NCc5cnc6nc(N)[nH]c(=O)c6n5)cc4)C(=O)O)C(=O)O)C(=O)O)cc3)nc12 [EC0531, reference compound] | 237 fold |  |  |  | CR |  |
| CCCC(=O)OCN(C(=O)[C@@H](NC(=O)[C@H]1CCCCN1C)C(C)CC)[C@H](C[C@H](OC(C)=O)c1nc(C(=O)N[C@H](Cc2ccc(O)cc2)C[C@H](C)C(=O)NNC(=O)OCCSSC[C@H](NC(=O)[C@H](CCC(=O)NC[C@H](O)[C@@H](O)[C@H](O)[C@H](O)CO)NC(=O)[C@H](CCC(=O)O)NC(=O)[C@H](CCC(=O)NC[C@H](O)[C@@H](O)[C@H](O)[C@H](O)CO)NC(=O)[C@H](CCC(=O)O)NC(=O)[C@H](CCC(=O)NC[C@H](O)[C@@H](O)[C@H](O)[C@H](O)CO)NC(=O)CC[C@H](NC(=O)c2ccc(NCc3cnc4nc(N)[nH]c(=O)c4n3)cc2)C(=O)O)C(=O)O)cs1)C(C)C (some centres unmarked) [EC0746, reference compound] |  |  |  |  |  | Free drug released (%): AMT ([2]; 500 nmol/kg s.c., plasma): 11.0%; Free drug released (%): AMT-hydrazide (EC0470) ([2]; 500 nmol/kg s.c., plasma): 7.4%; Free drug released (%): Total ([2]; 500 nmol/kg s.c., plasma): 18.4%; drug released relative to EC1496 ([2]; after a subcutaneous dose in rats): more than 2 fold |
| CCCC(=O)OCN(C(=O)[C@@H](NC(=O)[C@H]1CCCCN1C)C(C)CC)[C@H](C[C@@H](OC(C)=O)c1nc(C(=O)N[C@@H](Cc2ccc(O)cc2)C[C@H](C)C(=O)NNC(=O)OCCSSC(C)(C)[C@@H](NC(=O)[C@@H](CC(=O)O)NC(=O)[C@@H](CC(=O)O)NC(=O)[C@@H](CCCNC(=N)N)NC(=O)[C@@H](CC(=O)O)NC(=O)CC[C@@H](NC(=O)c2ccc(NCc3cnc4nc(N)[nH]c(=O)c4n3)cc2)C(=O)O)C(=O)O)cs1)C(C)C (some centres unmarked) [EC1393] | 300 fold |  |  | 0.25 |  |  |
| CCCCOCN(C(=O)[C@@H](NC(=O)[C@H]1CCCCN1C)C(C)CC)[C@H](C[C@@H](OC(C)=O)c1nc(C(=O)N[C@@H](Cc2ccc(O)cc2)C[C@H](C)C(=O)NNC(=O)OCCSSC[C@@H](NC(=O)[C@H](CCC(=O)NC[C@H](O)[C@@H](O)[C@H](O)[C@H](O)CO)NC(=O)[C@@H](CCC(=O)O)NC(=O)[C@H](CCC(=O)NC[C@H](O)[C@@H](O)[C@H](O)[C@H](O)CO)NC(=O)[C@@H](CCC(=O)O)NC(=O)[C@H](CCC(=O)NC[C@H](O)[C@@H](O)[C@H](O)[C@H](O)CO)NC(=O)CC[C@@H](NC(=O)c2ccc(NCc3cnc4nc(N)[nH]c(=O)c4n3)cc2)C(=O)O)C(=O)O)cs1)C(C)C (some centres unmarked) [EC1663] |  |  |  |  |  | partial responses (test animals) (KB tumors; 0.5 μmol/kg i.v. TIW, 2 weeks): 4/4; whole animal toxicity (KB tumors; 0.5 μmol/kg i.v. TIW, 2 weeks): did not exhibit significant host animal toxicity; also recorded: whole animal toxicity was not observed |
| CCCC(=O)OCN(C(=O)[C@@H](NC(=O)[C@H]1CCCCN1C)C(C)CC)[C@H](C[C@@H](OC(C)=O)c1nc(C(=O)N[C@@H](Cc2ccc(O)cc2)C[C@H](C)C(=O)NNC(=O)OCCSSC[C@@H](NC(=O)[C@@H](CC(=O)O)NC(=O)[C@@H](CC(=O)O)NC(=O)[C@@H](CCCNC(=N)N)NC(=O)[C@@H](CC(=O)O)NC(=O)CC[C@@H](NC(=O)c2ccc(NCc3cnc4nc(N)[nH]c(=O)c4n3)cc2)C(=O)O)C(=O)O)cs1)C(C)C (some centres unmarked) [EC1299] | 778 fold | 700 nM | 0.9 nM | 0.29 | CR |  |
| CCCC(=O)OCN(C(=O)[C@@H](NC(=O)[C@H]1CCCCN1C)C(C)CC)[C@H](C[C@@H](OC(C)=O)c1nc(C(=O)N[C@@H](Cc2ccc(O)cc2)C[C@H](C)C(=O)NNC(=O)OCCSSC[C@@H](NC(=O)[C@H](CC(=O)O)NC(=O)[C@H](CC(=O)O)NC(=O)[C@H](CCCNC(=N)N)NC(=O)[C@H](CC(=O)O)NC(=O)CC[C@H](NC(=O)c2ccc(NCc3cnc4nc(N)[nH]c(=O)c4n3)cc2)C(=O)O)C(=O)O)cs1)C(C)C (some centres unmarked) [EC1548] | 78 fold | 350 nM | 4.4 nM | 0.23 | CR |  |
| aminopterin hydrazide [EC0470, reference compound] |  |  |  |  |  | AUC of EC1669-derived metabolite [3]: 3.9 nmol·min/mL; elimination half-life of EC1669-derived metabolite [3]: 1.87 h; Cmax ([3]; plasma, read-out: Cmax of EC1669-derived metabolite): 21 nM |
